Data as given in patent US8937069B2, “Substituted pyrrolo[2,3-B]pyrazine compounds and their use” (Novartis AG, priority 2012, dated 2015).
pEC50: −log10 of the molar value.

Molecular target: T1, IP receptor (Homo sapiens, UniProt P43119)
T1 construct: expressed in transfected cells; host or cells: CHO cells stably expressing the IP receptor (CHO-IP)
Experiment: cAMP accumulation in CHO cells stably expressing the IP receptor (CHO-IP), PerkinElmer AlphaScreen assay
Type: cell-based
Settings: agonist activity, 1 hour at room temperature, 4-parameter logistic fit
Procedure: Activity of compounds at the IP receptor (IP receptor) is assessed by measuring cAMP accumulation in CHO cells stably expressing the IP receptor (CHO-IP) using the PerkinElmer AlphaScreen assay. This technology measures the endogenous production of cAMP, in a non-radioactive luminescence proximity homogenous assay. A biological reaction occurs between streptavidin coated donor beads, biotinylated cAMP and anti-cAMP acceptor beads, bringing the donor and acceptor beads close enough together so that upon excitation a fluorescence signal is produced. On production of endogenous cAMP, competition between the biotinylated cAMP and cellular-derived cAMP causes a reduction in the fluorescent signal. The reduction in signal is proportional to the amount of cAMP being produced, thus it is possible to quantify the amount of cAMP being produced on stimulation with agonist.
Test and reference compounds are prepared at 100×[final] in 100% DMSO, and diluted 1:3 using a Biomek Fx (Beckman Coulter). This is followed by an intermediate dilution to give 5×[final] in assay buffer (HBSS containing 5 mM HEPES, 0.1% (w/v) BSA). 5 μL of 5×[final] test compounds, reference compounds and buffer/DMSO control are then transferred to a 384-well white OptiPlate, containing 20 μL CHO-IP cell suspension (15,000 cells/well, prepared from frozen), and plate is incubated at room temperature for 1 hour. A cAMP standard curve is constructed for each experiment (concentration range of 10000 nM to 0.001 nM, in assay buffer) and 25 μL of each concentration added to the last two columns of the assay plate. The incubation is terminated by the addition of lysis buffer (dH2O; 0.3% (v v^−1) Tween-20) containing 20 units mL^−1 streptavidin coated donor beads and biotinylated cAMP (pre-incubated for 30 minutes) and 20 units mL^−1 anti-cAMP acceptor beads, which are added to the lysis buffer just before addition to the assay plate. The assay plate is then incubated at room temperature in the dark, for 60 minutes with gentle shaking, and read on the Envision plate reader (Perkin Elmer).
The raw data of the reference compounds, test compounds and controls are converted into cAMP concentrations, using the cAMP standard curve, in GraphPadPrism (GraphPad Software Inc). EC50 as well as maximal values of the agonist curves are determined using a 4-parameter logistic equation. The % maximum response values of all test compounds are determined using the top of the treprostinil concentration-response curve.

T1 sequence (P43119 whole entry): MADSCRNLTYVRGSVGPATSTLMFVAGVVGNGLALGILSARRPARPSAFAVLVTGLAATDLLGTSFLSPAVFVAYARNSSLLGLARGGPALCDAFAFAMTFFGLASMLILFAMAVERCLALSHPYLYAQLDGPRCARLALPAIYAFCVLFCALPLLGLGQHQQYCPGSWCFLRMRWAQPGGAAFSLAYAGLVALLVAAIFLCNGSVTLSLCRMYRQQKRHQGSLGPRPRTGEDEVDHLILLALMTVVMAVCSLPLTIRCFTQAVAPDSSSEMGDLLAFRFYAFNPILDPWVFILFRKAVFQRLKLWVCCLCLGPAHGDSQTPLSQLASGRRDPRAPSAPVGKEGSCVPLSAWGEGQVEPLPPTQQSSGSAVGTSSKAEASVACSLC

pEC50	SMILES
8.77	Cc1ccc(-c2nc3cc(C4CC4)n(CCCCCCC(=O)O)c3nc2-c2ccc(C)cc2)cc1 [Example 1, 7-(6-Cyclopropyl-2,3-di-p-tolyl-5H-pyrrolo[2,3-b]pyrazin-5-yl)heptanoic acid]
7.24	CCOC(=O)CCCCCCn1c(C2CC2)cc2nc(-c3ccc(C)cc3)c(-c3ccc(C)cc3)nc21 [Example 1.1, Ethyl 7-(6-cyclopropyl-2,3-di-p-tolyl-5H-pyrrolo[2,3-b]pyrazin-5-yl)heptanoate]
8.74	Cc1ccc(-c2nc3cc(C(C)C)n(CCCCCCC(=O)O)c3nc2-c2ccc(C)cc2)cc1 [Example 1.2, 7-(6-Isopropyl-2,3-di-p-tolyl-pyrrolo[2,3-b]pyrazin-5-yl)-heptanoic acid]
6.55	CCOC(=O)CCCCCCn1c(C(C)C)cc2nc(-c3ccc(C)cc3)c(-c3ccc(C)cc3)nc21 [Example 1.3, ethyl 7-(6-isopropyl-2,3-di-p-tolyl-5H-pyrrolo[2,3-b]pyrazin-5-yl)heptanoate]
7.74	CCOC(=O)CCCCCCn1ccc2nc(-c3ccc(C)cc3)c(-c3ccc(C)cc3)nc21 [Example 1.4, 7-(2,3-Di-p-tolyl-pyrrolo[2,3-b]pyrazin-5-yl)-heptanoic acid ethyl ester]
8.16	Cc1ccc(-c2nc3ccn(CCCCCCC(=O)O)c3nc2-c2ccc(C)cc2)cc1 [Example 1.5, 7-(2,3-Di-p-tolyl-pyrrolo[2,3-b]pyrazin-5-yl)-heptanoic acid]
8.15	Cc1ccc(-c2nc3c(C=O)cn(CCCCCCC(=O)O)c3nc2-c2ccc(C)cc2)cc1 [Example 2.1, 7-(7-Formyl-2,3di-p-tolyl-5H-pyrrolo[2,3-b]pyrazin-5-yl)heptanoic acid]
7.76	Cc1ccc(-c2nc3c(CO)cn(CCCCCCC(=O)O)c3nc2-c2ccc(C)cc2)cc1 [Example 2.2, 7-(7-(Hydroxymethyl)-2,3-di-p-tolyl-5H-pyrrolo[2,3-b]pyrazin-5-yl)heptanoic acid]
6.49	CCOC(=O)CCCCCCn1cc(CO)c2nc(-c3ccc(C)cc3)c(-c3ccc(C)cc3)nc21 [Example 3, Ethyl 7-(7-(hydroxymethyl)-2,3-di-p-tolyl-5H-pyrrolo[2,3-b]pyrazin-5-yl)heptanoate]
6.38	CCOC(=O)CCCCCCn1cc(CNC(C)C)c2nc(-c3ccc(C)cc3)c(-c3ccc(C)cc3)nc21 [Example 4.1, Ethyl 7-(7-((isopropylamino)methyl)-2,3-di-p-tolyl-5H-pyrrolo[2,3-b]pyrazin-5-yl)heptanoate]
7.10	Cc1ccc(-c2nc3c(CNC(C)C)cn(CCCCCCC(=O)O)c3nc2-c2ccc(C)cc2)cc1 [Example 4.2, 7-(7-((Isopropylamino)methyl)-2,3-di-p-tolyl-5H-pyrrolo[2,3-b]pyrazin-5-yl)heptanoic acid]
9.15	COc1cc2nc(-c3ccc(C)cc3)c(-c3ccc(C)cc3)nc2n1CCCCCCC(=O)O [Example 5, 7-(6-Methoxy-2,3-di-p-tolyl-pyrrolo[2,3-b]pyrazin-5-yl)-heptanoic acid]
8.74	CCOC(=O)CCCCCCN1CCc2nc(-c3ccc(C)cc3)c(-c3ccc(C)cc3)nc21 [Example 6, Ethyl 7-(2,3-di-p-tolyl-6,7-dihydro-5H-pyrrolo[2,3-b]pyrazin-5-yl)heptanoate]
6.49	Cc1ccc(-c2nc3cc(CCCCC(=O)O)[nH]c3nc2-c2ccc(C)cc2)cc1 [Example 7, 5-(2,3-Di-p-tolyl-5H-pyrrolo[2,3-b]pyrazin-6-yl)-pentanoic acid]
5.90	Cc1ccc(-c2nc3cc(CCCCC(=O)NCC(=O)O)[nH]c3nc2-c2ccc(C)cc2)cc1 [Example 8, 2-(5-(2,3-Di-p-tolyl-5H-pyrrolo[2,3-b]pyrazin-6-yl)pentanamido)acetic acid]
9.52	Cc1ccc(-c2nc3cc(C)n(CCCCCCC(=O)O)c3nc2-c2ccc(C)cc2)cc1 [Example 9, 7-(6-Methyl-2,3-di-p-tolyl-5H-pyrrolo[2,3-b]pyrazin-5-yl)heptanoic acid]

pEC50	SMILES
9.30	O=C(O)CCCCCCn1c(C2CC2)cc2nc(-c3ccccc3)c(-c3ccccc3)nc21 [Example 10, 7-(6-Cyclopropyl-2,3-diphenyl-pyrrolo[2,3-b]pyrazin-5-yl)-heptanoic acid]
8.62	COc1ccc(-c2nc3cc(C4CC4)n(CCCCCCC(=O)O)c3nc2-c2ccc(C)cc2)cc1 [Example 10.1, 7-(6-cyclopropyl-2-(4-methoxy-phenyl)-3-(p-tolyl)-5H-pyrrolo[2,3-b]pyrazin-5-yl)heptanoic acid]
8.25	O=C(O)CCCCCCn1c(C2CC2)cc2nc(-c3ccc(Cl)cc3)c(-c3ccc(Cl)cc3)nc21 [Example 10.2, 7-(2,3-bis(4-chlorophenyl)-6-cyclopropyl-5H-pyrrolo[2,3-b]pyrazin-5-yl)heptanoic acid]
8.17	CCc1ccc(-c2nc3cc(C4CC4)n(CCCCCCC(=O)O)c3nc2-c2ccc(C)cc2)cc1 [Example 10.3, 7-(6-cyclopropyl-2-(4-ethylphenyl)-3-(p-tolyl)-5H-pyrrolo[2,3-b]pyrazin-5-yl)heptanoic acid]
7.22	Cc1cccc(-c2nc3cc(C4CC4)n(CCCCCCC(=O)O)c3nc2-c2cccc(C)c2)c1 [Example 10.4, 7-(6-cyclopropyl-2,3-di-m-tolyl-5H-pyrrolo[2,3-b]pyrazin-5-yl)heptanoic acid]
8.36	CCc1ccc(-c2nc3c(cc(C4CC4)n3CCCCCCC(=O)O)nc2-c2ccc(C)cc2)cc1 [Example 10.5, 7-(6-cyclopropyl-3-(4-ethylphenyl)-2-(p-tolyl)-5H-pyrrolo[2,3-b]pyrazin-5-yl)heptanoic acid]
8.21	COc1ccc(-c2nc3c(cc(C4CC4)n3CCCCCCC(=O)O)nc2-c2ccc(C)cc2)cc1 [Example 10.6, 7-(6-cyclopropyl-3-(4-methoxyphenyl)-2-(p-tolyl)-5H-pyrrolo[2,3-b]pyrazin-5-yl)heptanoic acid]
7.43	Cc1ccc(-c2nc3cc(C4CC4)n(CCCCCCC(=O)O)c3nc2-c2cccc(C)c2)cc1 [Example 10.7, 7-(6-cyclopropyl-3-(m-tolyl)-2-(p-tolyl)-5H-pyrrolo[2,3-b]pyrazin-5-yl)heptanoic acid]
8.60	Cc1ccc(-c2nc3c(cc(C4CC4)n3CCCCCCC(=O)O)nc2-c2cccc(C)c2)cc1 [Example 10.8, 7-(6-cyclopropyl-2-(m-tolyl)-3-(p-tolyl)-5H-pyrrolo[2,3-b]pyrazin-5-yl)heptanoic acid]
8.80	Cc1ccc(-c2nc3cc(CCO)n(CCCCCCC(=O)O)c3nc2-c2ccc(C)cc2)cc1 [Example 11, 7-(6-(2-Hydroxyethyl)-2,3-di-p-tolyl-5H-pyrrolo[2,3-b]pyrazin-5-yl)heptanoic acid]
6.18	Cc1ccc(-c2nc3cc(C4CC4)n(CCCCC(=O)O)c3nc2-c2ccc(C)cc2)cc1 [Example 12, 5-(6-Cyclopropyl-2,3-di-p-tolyl-5H-pyrrolo[2,3-b]pyrazin-5-yl)pentanoic acid]
8.62	Cc1ccc(-c2nc3cc(C4CC4)n(CCCCCC(=O)O)c3nc2-c2ccc(C)cc2)cc1 [Example 13, 6-(6-Cyclopropyl-2,3-di-p-tolyl-5H-pyrrolo[2,3-b]pyrazin-5-yl)hexanoic acid]
8.38	COCc1cn(CCCCCCC(=O)O)c2nc(-c3ccc(C)cc3)c(-c3ccc(C)cc3)nc12 [Example 14, 7-(7-(Methoxymethyl)-2,3-di-p-tolyl-5H-pyrrolo[2,3-b]pyrazin-5-yl)heptanoic acid]
8.44	Cc1ccc(-c2nc3c(nc2-c2ccc(C)cc2)N(CCCCCCC(=O)O)C(=O)C3)cc1 [Example 15, 7-(6-oxo-2,3-dip-tolyl-6,7-dihydro-5H-pyrrolo[2,3-b]pyrazin-5-yl)heptanoic acid]
8.52	Cc1ccc(-c2nc3cc(C(F)(F)F)n(CCCCCCC(=O)O)c3nc2-c2ccc(C)cc2)cc1 [Example 16, 7-(2,3-Dip-tolyl-6-(trifluoromethyl)-5H-pyrrolo[2,3-b]pyrazin-5-yl)heptanoic acid]
9.30	CCc1c(CC)n(CCCCCCC(=O)O)c2nc(-c3ccc(C)cc3)c(-c3ccc(C)cc3)nc12 [Example 17, 7-(6,7-Diethyl-2,3-di-p-tolyl-5H-pyrrolo[2,3-b]pyrazin-5-yl)heptanoic acid]
